Tests used:
barnyardgrass [1] = test: Test A preemergence; format: in vivo, Echinochloa crus-galli; details: for Barnyardgrass plant response rating: 500 g ai/ha, approx. 10 days
Method in brief: (§1)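 Compounds in non-phytotoxic solvent with surfactant applied as soil spray preemergence, or postemergence to plants 2-10 cm at one- to two-leaf stage, in loam/sand. After approximately 10 days in greenhouse, injury rated visually versus untreated controls, 0 (no effect) to 100 (complete control).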

large (Lg) crabgrass [2] = test: Test A preemergence; format: in vivo, Digitaria sanguinalis; details: for Crabgrass, Large plant response rating: 500 g ai/ha, approx. 10 days
Method in brief: as §1

giant foxtail [3] = test: Test A preemergence; format: in vivo, Setaria faberii; details: for Plant response rating, Foxtail, Giant: 125 g ai/ha, 0 to 100 scale where 0 is no effect and 100 is complete control; for Foxtail, Giant plant response rating: 0 to 100 scale, 0 no effect, 100 complete control, approx. 10 days
Method in brief: as §1

morningglory [4] = test: Test A preemergence; format: in vivo, Ipomoea spp.; details: for Plant response rating, Morningglory: 125 g ai/ha, 0 to 100 scale where 0 is no effect and 100 is complete control; for Morningglory plant response rating: 0 to 100 scale, 0 no effect, 100 complete control, approx. 10 days
Method in brief: as §1

pigweed [5] = test: Test A preemergence; format: in vivo, Amaranthus retroflexus; details: for Plant response rating, Pigweed: 125 g ai/ha, 0 to 100 scale where 0 is no effect and 100 is complete control; for Pigweed plant response rating: 0 to 100 scale, 0 no effect, 100 complete control, approx. 10 days
Method in brief: as §1

velvetleaf [6] = test: Test A preemergence; format: in vivo, Abutilon theophrasti; details: for Plant response rating, Velvetleaf: 125 g ai/ha, 0 to 100 scale where 0 is no effect and 100 is complete control; for Velvetleaf plant response rating: 0 to 100 scale, 0 no effect, 100 complete control, approx. 10 days
Method in brief: as §1

wheat [7] = test: Test A preemergence; format: in vivo, Triticum aestivum; details: for Plant response rating, Wheat: 125 g ai/ha, 0 to 100 scale where 0 is no effect and 100 is complete control; for Wheat plant response rating: 0 to 100 scale, 0 no effect, 100 complete control, approx. 10 days
Method in brief: as §1

corn [8] = test: Test A preemergence; format: in vivo, Zea mays; details: for Corn plant response rating: 500 g ai/ha, approx. 10 days
Method in brief: as §1

barnyardgrass [9] = test: Test A postemergence; format: in vivo, Echinochloa crus-galli
Method in brief: as §1

large (Lg) crabgrass [10] = test: Test A postemergence; format: in vivo, Digitaria sanguinalis
Method in brief: as §1

giant foxtail [11] = test: Test A postemergence; format: in vivo, Setaria faberii
Method in brief: as §1

morningglory [12] = test: Test A postemergence; format: in vivo, Ipomoea spp.
Method in brief: as §1

pigweed [13] = test: Test A postemergence; format: in vivo, Amaranthus retroflexus
Method in brief: as §1

velvetleaf [14] = test: Test A postemergence; format: in vivo, Abutilon theophrasti
Method in brief: as §1

wheat [15] = test: Test A postemergence; format: in vivo, Triticum aestivum
Method in brief: as §1

corn [16] = test: Test A postemergence; format: in vivo, Zea mays
Method in brief: as §1

rice = test: Test B flooded paddy test; format: in vivo, Oryza sativa; details: Flood, 250 g ai/ha; 0 to 100 scale where 0 is no effect and 100 is complete control
Method in brief: (§2)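 Greenhouse flooded-pot test: compounds dosed into 3 cm standing water over 2-leaf plants, flood held constant. Rated visually after 13–15 days on 0–100 (complete control = 100); a dash marks no test result.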

sedge, umbrella = test: Test B flooded paddy test; format: in vivo, Cyperus difformis; details: Flood, 250 g ai/ha; 0 to 100 scale where 0 is no effect and 100 is complete control
Method in brief: as §2

Heteranthera limosa = test: Test B flooded paddy test; format: in vivo; details: Flood, 250 g ai/ha; 0 to 100 scale where 0 is no effect and 100 is complete control
Method in brief: as §2

barnyardgrass [17] = test: Test B flooded paddy test; format: in vivo, Echinochloa crus-galli; details: Flood, 250 g ai/ha; 0 to 100 scale where 0 is no effect and 100 is complete control
Method in brief: as §2

[18] = 125 g ai/ha, 0 to 100 scale where 0 is no effect and 100 is complete control
[19] = 0 to 100 scale, 0 no effect, 100 complete control
[20] = 500 g ai/ha, 0 to 100 scale, 0 no effect, 100 complete control
[21] = 1000 g ai/ha, 0 to 100 scale, 0 no effect, 100 complete control

Structure (SMILES) | Plant response rating, Barnyardgrass (barnyardgrass [1]; [18]) | Barnyardgrass plant response rating (barnyardgrass [1]; [19]) | Plant response rating, Crabgrass, Large (large (Lg) crabgrass [2]; [18]) | Crabgrass, Large plant response rating (large (Lg) crabgrass [2]; [19]) | Plant response rating, Foxtail, Giant (giant foxtail [3]) | Foxtail, Giant plant response rating (giant foxtail [3]; 500 g ai/ha) | Plant response rating, Morningglory (morningglory [4]) | Morningglory plant response rating (morningglory [4]; 500 g ai/ha) | Plant response rating, Pigweed (pigweed [5]) | Pigweed plant response rating (pigweed [5]; 500 g ai/ha) | Plant response rating, Velvetleaf (velvetleaf [6]) | Velvetleaf plant response rating (velvetleaf [6]; 500 g ai/ha) | Plant response rating, Wheat (wheat [7]) | Wheat plant response rating (wheat [7]; 500 g ai/ha) | Plant response rating, Corn (corn [8]; [18]) | Corn plant response rating (corn [8]; [19]) | Plant response rating, Rice (rice) | Plant response rating, Sedge, Umbrella (sedge, umbrella) | Plant response rating, Ducksalad (Heteranthera limosa) | Plant response rating, Barnyardgrass (barnyardgrass [17]) | other results
Clc1cnc(Oc2ccccc2-n2cnc(Br)n2)nc1 [Compound 46] | 0 | 20 | 20 | 100 | 0 | 80 | 0 | 0 | 20 | 90 | 0 | 0 | 0 | 0 | 0 | 0 | 0 | 0 | 0 | 0 | Plant response rating, Barnyardgrass (barnyardgrass [9]; [18]): 0; Plant response rating, Barnyardgrass (barnyardgrass [9]; [20]): 20; Plant response rating, Crabgrass, Large (large (Lg) crabgrass [10]; [18]): 0; Plant response rating, Crabgrass, Large (large (Lg) crabgrass [10]; [20]): 20; Plant response rating, Foxtail, Giant (giant foxtail [11]; [18]): 0; Plant response rating, Foxtail, Giant (giant foxtail [11]; [20]): 20; Plant response rating, Morningglory (morningglory [12]; [18]): 20; Plant response rating, Morningglory (morningglory [12]; [20]): 50; Plant response rating, Pigweed (pigweed [13]; [18]): 40; Plant response rating, Pigweed (pigweed [13]; [20]): 80; Plant response rating, Velvetleaf (velvetleaf [14]; [18]): 0; Plant response rating, Velvetleaf (velvetleaf [14]; [20]): 40; Plant response rating, Wheat (wheat [15]; [18]): 0; Plant response rating, Wheat (wheat [15]; [20]): 0; Plant response rating, Corn (corn [16]; [18]): 0; Plant response rating, Corn (corn [16]; [20]): 30
Fc1ccc(Oc2ncc(Cl)cn2)c(-n2cc(Br)cn2)c1 [Compound 53] |  |  |  |  |  |  |  |  |  |  |  |  |  |  |  |  | 0 | 0 | 75 | 0 | Plant response rating, Barnyardgrass (barnyardgrass [1]; [21]): 100; Plant response rating, Crabgrass, Large (large (Lg) crabgrass [2]; [21]): 100; Foxtail, Giant plant response rating (giant foxtail [3]; 1000 g ai/ha): 100; Morningglory plant response rating (morningglory [4]; 1000 g ai/ha): 60; Pigweed plant response rating (pigweed [5]; 1000 g ai/ha): 100; Velvetleaf plant response rating (velvetleaf [6]; 1000 g ai/ha): 100; Wheat plant response rating (wheat [7]; 1000 g ai/ha): 0; Plant response rating, Corn (corn [8]; [21]): 10; Plant response rating, Barnyardgrass (barnyardgrass [9]; [21]): 90; Plant response rating, Crabgrass, Large (large (Lg) crabgrass [10]; [21]): 70; Plant response rating, Foxtail, Giant (giant foxtail [11]; [21]): 80; Plant response rating, Morningglory (morningglory [12]; [21]): 100; Plant response rating, Pigweed (pigweed [13]; [21]): 100; Plant response rating, Velvetleaf (velvetleaf [14]; [21]): 100; Plant response rating, Wheat (wheat [15]; [21]): 30; Plant response rating, Corn (corn [16]; [21]): 30
N#Cc1cccc(Oc2ncc(I)cn2)c1-n1cc(Br)cn1 [Compound 60] | 0 | 70 | 40 | 100 | 20 | 90 | 0 | 0 | 30 | 100 | 0 | 40 | 0 | 0 | 0 | 0 | 0 | 0 | 0 | 0 | Plant response rating, Barnyardgrass (barnyardgrass [9]; [18]): 20; Plant response rating, Barnyardgrass (barnyardgrass [9]; [20]): 50; Plant response rating, Crabgrass, Large (large (Lg) crabgrass [10]; [18]): 10; Plant response rating, Crabgrass, Large (large (Lg) crabgrass [10]; [20]): 70; Plant response rating, Foxtail, Giant (giant foxtail [11]; [18]): 20; Plant response rating, Foxtail, Giant (giant foxtail [11]; [20]): 80; Plant response rating, Morningglory (morningglory [12]; [18]): 10; Plant response rating, Morningglory (morningglory [12]; [20]): 50; Plant response rating, Pigweed (pigweed [13]; [18]): 50; Plant response rating, Pigweed (pigweed [13]; [20]): 100; Plant response rating, Velvetleaf (velvetleaf [14]; [18]): 50; Plant response rating, Velvetleaf (velvetleaf [14]; [20]): 100; Plant response rating, Wheat (wheat [15]; [18]): 0; Plant response rating, Wheat (wheat [15]; [20]): 10; Plant response rating, Corn (corn [16]; [18]): 0; Plant response rating, Corn (corn [16]; [20]): 30
O=Cc1cccc(Oc2ncc(Cl)cn2)c1-n1cc(Br)cn1 [Compound 61] | 0 | 20 | 0 | 20 | 0 | 0 | 0 | 0 | 0 | 30 | 0 | 0 | 0 | 0 | 0 | 0 | 0 | 0 | 0 | 0 | Plant response rating, Barnyardgrass (barnyardgrass [9]; [18]): 0; Plant response rating, Barnyardgrass (barnyardgrass [9]; [20]): 0; Plant response rating, Crabgrass, Large (large (Lg) crabgrass [10]; [18]): 0; Plant response rating, Crabgrass, Large (large (Lg) crabgrass [10]; [20]): 0; Plant response rating, Foxtail, Giant (giant foxtail [11]; [18]): 0; Plant response rating, Foxtail, Giant (giant foxtail [11]; [20]): 0; Plant response rating, Morningglory (morningglory [12]; [18]): 0; Plant response rating, Morningglory (morningglory [12]; [20]): 0; Plant response rating, Pigweed (pigweed [13]; [18]): 0; Plant response rating, Pigweed (pigweed [13]; [20]): 0; Plant response rating, Velvetleaf (velvetleaf [14]; [18]): 20; Plant response rating, Velvetleaf (velvetleaf [14]; [20]): 30; Plant response rating, Wheat (wheat [15]; [18]): 0; Plant response rating, Wheat (wheat [15]; [20]): 0; Plant response rating, Corn (corn [16]; [18]): 0; Plant response rating, Corn (corn [16]; [20]): 0

From patent US9695155B2, “Herbicidal substituted pyrimidinyloxy benzene compounds” (E. I. DU PONT DE NEMOURS AND COMPANY, priority 2013, dated 2017)
